Laboratory results reported in PMC10584170, “Machine learning-based phenotypic imaging to characterise the targetable biology of Plasmodium falciparum male gametocytes for the development of transmission-blocking antimalarials” (PLOS Pathogens, 2023).
Read-outs that look alike come from different tables or passages of the source.

Experiments:
HepG2 cells [1] = settings: cited from earlier work; for FGAA TOX50 HepG2: HepG2 value reported with the FGAA screen, ref Miguel-Blanco et al 2017
HepG2 cells [2] = assay: HepG2 cytotoxicity counter-screen; settings: for Mean TOX: mean of the HepG2 TOX50 values; for Tox50: cytotoxic activity against HepG2 cells
[3] = system: P. falciparum male gametocytes; assay: P. falciparum Dual Gamete Formation Assay (PfDGFA), male readout (exflagellation); format: cell-based, Plasmodium falciparum NF54; settings: for Selectivity Ratio M: HepG2 Tox50 versus male IC50; for inhibition at 2 µM: 24h preincubation with gametocytes
Procedure, shortened: (§1)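 Two sex-specific readouts come from one well: male exflagellation centres recorded by brightfield video right after activation, and female gametes scored by Cy3-anti-Pfs25 fluorescence after 24 h at 28°C.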

[4] = system: P. falciparum female gametocytes; assay: P. falciparum Dual Gamete Formation Assay (PfDGFA), female readout (Pfs25-positive female gametes); format: cell-based, Plasmodium falciparum NF54; settings: for Selectivity ratio F: HepG2 Tox50 versus female IC50; for inhibition at 2 µM: 24h preincubation with gametocytes
Procedure, shortened: as §1

[5] = system: P. berghei ookinete development; assay: P. berghei Ookinete Development Assay (PbODA); format: cell-based, Plasmodium berghei; settings: Mean TOX HepG2 over Pb ODA value; GREEN = >10-fold; RED = <10-fold
Excerpt: (§2) Fig 1 The activity of TCAMS compound identified in the Pf DGFA screen. (A) 85 molecules were confirmed active in the Pf DGFA. 58 were previously identified in one or more transmission-blocking screens. […] No molecule was identified with >4.7-fold greater activity against female gametocytes. Abbreviations (IC50 = concentration giving 50% inhibition, PbODA = P. berghei Ookinete Development Assay, PfDGFA = P. falciparum Dual Gamete Formation Assay, PfFGAA = P. falciparum Female Gametocyte Activation Assay, PfGCT = P. falciparum Gametocyte Viability ATP Assay).

[6] = system: P. falciparum female gametocytes; parameters: method as in Miguel-Blanco et al 2017; settings: ref Miguel-Blanco et al 2017; read-out: Pf female gametogenesis FGAA IC50; cited from earlier work
[7] = system: P. falciparum female gametocytes; assay: P. falciparum Female Gametocyte Activation Assay (PfFGAA); format: cell-based, Plasmodium falciparum; settings: human
Excerpt: as §2

[8] = this study, read-out: Pf DGFA IC50 MALE
[9] = this study, read-out: Pf DGFA IC50 FEM
[10] = Mean TOX HepG2 over DGFA IC50 MALE, GREEN = >10-fold, RED = <10-fold
[11] = Plasmodium falciparum, PfDGFA, 24 h incubation with gametocytes before induction, exflagellation readout, read-out: Male IC50
[12] = Mean TOX HepG2 over DGFA IC50 FEM, GREEN = >10-fold, RED = <10-fold
[13] = Plasmodium falciparum, PfDGFA, 24 h incubation with gametocytes before induction, female gamete readout, read-out: Female IC50

For `Br.CC[C@H]1CN2CCc3cc(OC)c(OC)cc3[C@@H]2C[C@@H]1C[C@H]1NCCc2c1cc(OC)c(O)c2I` [TC07], the “ODA TOX50 HepG2” value (HepG2 cells [1]) is given as 5.433 µM, the “Mean TOX” value (HepG2 cells [2]) is given as 5.89 µM and the “Cytotox ratio Pf Male” value [3] is given as 7.0. The IC50 [3, 8] was 840 nM, the “Cytotox ratio Pf Female” value [4] was 20.3 and the IC50 [4, 9] was 290 nM. The “Cytotox ratio Pb Ookinete” value [5] was 8736.5.
In the case of `CCC1=C[C@@H]2CN(C1)Cc1c([nH]c3ccccc13)[C@@](C(=O)OC)(c1cc3c(cc1OC)N(C)[C@H]1[C@@](O)(C(=O)OC)[C@H](O)[C@]4(CC)C=CCN5CC[C@]31[C@@H]54)C2.O=S(=O)(O)O` [TC21], the “ODA TOX50 HepG2” value (HepG2 cells [1]) is given as 41.2098 µM, the “Mean TOX” value (HepG2 cells [2]) is given as 48.44 µM and the “Cytotox ratio Pf Male” value [3] is given as 4844.5. For the same compound, the IC50 [3, 8] was 10 nM, the “Cytotox ratio Pf Female” value [4] was 4.8 and the “Cytotox ratio Pb Ookinete” value [5] was 80190.9.
For `COc1ccc(Nc2ncc(C#N)c(Nc3ccccc3C(N)=O)n2)cc1N1CCN(C)CC1.Cl` [TC22], the “ODA TOX50 HepG2” value (HepG2 cells [1]) is listed as 8.318 µM, the “Mean TOX” value (HepG2 cells [2]) is listed as 8.95 µM and the “Cytotox ratio Pf Male” value [3] is listed as 89.5. The IC50 [3, 8] was 100 nM, the “Cytotox ratio Pf Female” value [4] was 0.9 and the “Cytotox ratio Pb Ookinete” value [5] was 308001.0.
For `CN1CCN(c2ccc(Nc3ncc(Cl)c(Nc4cccnc4C(N)=O)n3)cc2)CC1.Cl` [TC24], the “ODA TOX50 HepG2” value (HepG2 cells [1]) is given as 4.624 µM, the “Mean TOX” value (HepG2 cells [2]) is given as 5.46 µM and the “Cytotox ratio Pf Male” value [3] is given as 11.9. The IC50 [3, 8] was 460 nM, the “Cytotox ratio Pf Female” value [4] was 1.0 and the IC50 [4, 9] was 5470 nM. The “Cytotox ratio Pb Ookinete” value [5] was 13093.5.
In the case of `COc1ccc(-c2cnc(N)c(-c3ccc(C(N)=O)cc3)c2)cc1OC` [TC26], the “ODA TOX50 HepG2” value (HepG2 cells [1]) is given as 100 µM, the “Mean TOX” value (HepG2 cells [2]) is given as 57.57 µM and the “Cytotox ratio Pf Male” value [3] is given as 205.6. The IC50 [3, 8] was 280 nM, the “Cytotox ratio Pf Female” value [4] was 5.8 and the “Cytotox ratio Pb Ookinete” value [5] was 82067.7.
For `CNC(=O)c1ccccc1Nc1nc(Nc2ccc(N3CCOCC3)cc2)ncc1Cl.Cl` [TC28], the “ODA TOX50 HepG2” value (HepG2 cells [1]) is listed as 3.631 µM, the “Mean TOX” value (HepG2 cells [2]) is listed as 2.23 µM and the “Cytotox ratio Pf Male” value [3] is listed as 12.4. The IC50 [3, 8] was 180 nM, the “Cytotox ratio Pf Female” value [4] was 0.223 and the “Cytotox ratio Pb Ookinete” value [5] was 3489.3.
In the case of `COc1ccc2nc(-c3cc(-c4ccc(NC(=O)C(C)C)cc4)cnc3N)[nH]c2c1` [TC32], the “ODA TOX50 HepG2” value (HepG2 cells [1]) is listed as 8.61 µM, the “Mean TOX” value (HepG2 cells [2]) is listed as 8.50 µM and the “Cytotox ratio Pf Male” value [3] is listed as 19.8. The IC50 [3, 8] was 430 nM, the “Cytotox ratio Pf Female” value [4] was 0.85 and the “Cytotox ratio Pb Ookinete” value [5] was 12253.3.
In the case of `Cl.NC(=O)c1ccccc1Nc1nc(Nc2cccc(N3CCN(CCO)CC3)c2)ncc1Cl` [TC33], the “ODA TOX50 HepG2” value (HepG2 cells [1]) is listed as 41.687 µM, the “Mean TOX” value (HepG2 cells [2]) is listed as 27.38 µM and the “Cytotox ratio Pf Male” value [3] is listed as 58.3. The IC50 [3, 8] was 470 nM, the “Cytotox ratio Pf Female” value [4] was 2.7 and the “Cytotox ratio Pb Ookinete” value [5] was 311828.0.
In the case of `CC(Nc1cc(-c2ccccn2)nc(-c2ccccn2)n1)c1ccccc1` (stereo not drawn) [TCMDC-125420], the “FGAA TOX50 HepG2” value (HepG2 cells [1]) is given as 6.18 µM, the IC50 [6] is given as 210 nM and the Tox50 (HepG2 cells [2]) is given as 7.4 µM. The “Mean TOX” value (HepG2 cells [2]) was 6.79 µM, the “Selectivity Ratio M” value [3] was 3.89 and the “Cytotox ratio Pf Male” value [3, 10] was 3.6. The inhibition at 2 µM ([3]; Plasmodium falciparum, PfDGFA at 2µM, average of replicates, read-out: Average inhibition male (%)) was 78.7%, the inhibition at 2 µM ([3]; Plasmodium falciparum, PfDGFA at 2µM, replicate R1, read-out: % inhibition male (individual replicates) R1) was 74.1% and the inhibition at 2 µM ([3]; Plasmodium falciparum, PfDGFA at 2µM, replicate R2, read-out: % inhibition male (individual replicates) R2) was 77.3%. For the same compound, the inhibition at 2 µM ([3]; Plasmodium falciparum, PfDGFA at 2µM, replicate R4, read-out: % inhibition male (individual replicates) R4) was 84.5%, the IC50 [3, 11] was 1900 nM and the HitlevelM ([3]; number of replicates with >50% inhibition in the male readout, 2µM) was 3. The “Selectivity ratio F” value [4] was 10.4, the “Cytotox ratio Pf Female” value [4, 12] was 9.6 and the inhibition at 2 µM ([4]; Plasmodium falciparum, PfDGFA at 2µM, average of replicates, read-out: Average inhibition female (%)) was 56%. For the same compound, the inhibition at 2 µM ([4]; Plasmodium falciparum, PfDGFA at 2µM, replicate R1, read-out: % inhibition female (individual replicates) R1) was 55.2%, the inhibition at 2 µM ([4]; Plasmodium falciparum, PfDGFA at 2µM, replicate R2, read-out: % inhibition female (individual replicates) R2) was 57.8% and the inhibition at 2 µM ([4]; Plasmodium falciparum, PfDGFA at 2µM, replicate R3, read-out: % inhibition female (individual replicates) R3) was 63%. It also gave an inhibition at 2 µM ([4]; Plasmodium falciparum, PfDGFA at 2µM, replicate R4, read-out: % inhibition female (individual replicates) R4) of 48%, an IC50 [4, 13] of 710 nM and a HitlevelF ([4]; number of replicates with >50% inhibition in the female readout, 2µM) of 3. For the same compound, the “Cytotox ratio Pf FGAA” value [7] was 29.4.
For `CN(C)CCOc1ccc(NC(=O)NC(C)(C)c2nc(-c3ccc(Cl)c(O)c3)c(-c3ccncc3)[nH]2)cc1.Cl` [TCMDC-140744], the “FGAA TOX50 HepG2” value (HepG2 cells [1]) is listed as 14.3 µM, the IC50 [6] is listed as 730 nM and the Tox50 (HepG2 cells [2]) is listed as 29.19 µM. For the same compound, the “Mean TOX” value (HepG2 cells [2]) was 21.75 µM, the “Selectivity Ratio M” value [3] was 89.77 and the “Cytotox ratio Pf Male” value [3, 10] was 65.9. It also gave an inhibition at 2 µM ([3]; Plasmodium falciparum, 2µM, average of replicates, read-out: Average inhibition male (%)) of 97.8%, an inhibition at 2 µM ([3]; Plasmodium falciparum, 2µM, replicate R1, read-out: % inhibition male (individual replicates) R1) of 98.2% and an inhibition at 2 µM ([3]; Plasmodium falciparum, 2µM, replicate R2, read-out: % inhibition male (individual replicates) R2) of 101%. It also gave an inhibition at 2 µM ([3]; Plasmodium falciparum, 2µM, replicate R3, read-out: % inhibition male (individual replicates) R3) of 95.7%, an inhibition at 2 µM ([3]; Plasmodium falciparum, 2µM, replicate R4, read-out: % inhibition male (individual replicates) R4) of 96.3% and an IC50 [3, 11] of 330 nM. The “Selectivity ratio F” value [4] was 76.37, the “Cytotox ratio Pf Female” value [4, 12] was 57.2 and the inhibition at 2 µM ([4]; Plasmodium falciparum, 2µM, average of replicates, read-out: Average inhibition female (%)) was 95.5%. The inhibition at 2 µM ([4]; Plasmodium falciparum, 2µM, replicate R1, read-out: % inhibition female (individual replicates) R1) was 91.1%, the inhibition at 2 µM ([4]; Plasmodium falciparum, 2µM, replicate R2, read-out: % inhibition female (individual replicates) R2) was 96.2% and the inhibition at 2 µM ([4]; Plasmodium falciparum, 2µM, replicate R3, read-out: % inhibition female (individual replicates) R3) was 101%. The inhibition at 2 µM ([4]; Plasmodium falciparum, 2µM, replicate R4, read-out: % inhibition female (individual replicates) R4) was 93.9%, the IC50 [4, 13] was 380 nM and the “Cytotox ratio Pf FGAA” value [7] was 29.8.
